# According to article PMC4116505, “HER2-signaling pathway, JNK and ERKs kinases, and cancer stem-like cells are targets of Bozepinib” (Oncotarget, 2014):
# Legend:
# VEGFR-3 [1] = target: T1, VEGFR-3 (Homo sapiens, UniProt P35916); experiment: 36-kinase panel, residual activity at […]; format: biochemical
# T1 construct: gene FLT4
# VEGFR-2 [2] = target: T2, VEGFR-2 (Homo sapiens, UniProt P35968); experiment: 36-kinase panel, residual activity at […]; format: biochemical
# T2 construct: gene KDR
# STK23 = target: T3, STK23 (Homo sapiens, UniProt Q9UPE1); experiment: biochemical; design: protein kinase panel (36 kinases), residual activity at two concentrations, singlicate
# T3 construct: gene SRPK3
# Experimental: (§1) The kinase inhibition profile of Bozepinib was determined using a panel of 36 protein kinases (Supplementary Table S1). Residual activity values were measured by testing each compound at two concentrations (5×10^−5 M and 5×10^−6 M) in singlicate for each kinase assay. Detailed methods for kinome analyses are provided in Supplementary Materials and Methods. […] Each experiment was repeated three times. Kinase Inhibition Assays Bozepinib was dissolved in volumes of 100% DMSO to reach stock concentrations of 5×10^-3 M/100% DMSO and 5×10^-4 M/100% DMSO, respectively. In the process, the 5×10^-3 M/100% DMSO and 5×10^-4 M/100% DMSO solutions were diluted with water to 5×10^-4 M/10% DMSO and 5×10^-5 M/10% DMSO in a 96 well microtiter plate directly before use. For every kinase, 5 μl from each of the 5×10^-4 M/10% DMSO and 5×10^-5 M/10% DMSO compound solutions were transferred into the assay plates. The To study the effect of Bozepinib on cancer proliferation pathways, we carried out an ex vivo multikinase screening assay (n=36) using 5μM and 50μM (Supplementary Table S3). […] In order to analyze whether Bozepinib inhibits the HER2 signaling pathways in breast cancer cells, we treated the HER2 positive SKBR-3 cell line with 5 μM of Bozepinib and we analyzed the expression and activation of proteins involved in HER2 signaling at different times post-treatment by western blot analysis (Fig. 1A). […] Moreover, we also detected both the inhibition of ERKs and JNK phosphorylation in MCF-7 and MDA-MB 468 breast cancer cell lines, that was more notable in MCF-7 cells at 4 hours post-treatment and in MDA-MB 468 cell line after 8 hours post-treatment (Fig. 1B and 1C).
# CDK6/CycD1 = CDK6/CycD1 (Homo sapiens, UniProt Q00534); experiment: biochemical; design: protein kinase panel (36 kinases), residual activity at two concentrations, singlicate
# Experimental: as §1
# IKK-epsilon = target: T4, IKK-epsilon (Homo sapiens, UniProt Q14164); experiment: biochemical; design: protein kinase panel (36 kinases), residual activity at two concentrations, singlicate
# T4 construct: gene IKBKE
# Experimental: as §1
# HER2 [3] = target: T5, HER2 (Homo sapiens, UniProt P04626); experiment: biochemical; design: protein kinase panel (36 kinases), residual activity at two concentrations, singlicate
# T5 construct: gene ERBB2
# Experimental: as §1
# PKC-alpha = target: T6, PKC-alpha (Homo sapiens, UniProt P17252); experiment: biochemical; design: protein kinase panel (36 kinases), residual activity at two concentrations, singlicate
# T6 construct: gene PRKCA
# Experimental: as §1
# JNK3 = target: T7, JNK3 (Homo sapiens, UniProt P53779); experiment: biochemical; design: protein kinase panel (36 kinases), residual activity at two concentrations, singlicate
# T7 construct: gene MAPK10
# Experimental: as §1
# JAK3 = JAK3 (Homo sapiens, UniProt P52333); experiment: biochemical; design: protein kinase panel (36 kinases), residual activity at two concentrations, singlicate
# Experimental: as §1
# AKT3 = AKT3 (Homo sapiens, UniProt Q9Y243); experiment: biochemical; design: protein kinase panel (36 kinases), residual activity at two concentrations, singlicate
# Experimental: as §1
# ERK2 = target: T8, ERK2 (Homo sapiens, UniProt P28482); experiment: biochemical; design: protein kinase panel (36 kinases), residual activity at two concentrations, singlicate
# T8 construct: gene MAPK1
# Experimental: as §1
# VEGFR-3 [4] = target: T1, VEGFR-3; experiment: biochemical; design: protein kinase panel (36 kinases), residual activity at two concentrations, singlicate
# Experimental: as §1
# JNK2 = target: T9, JNK2 (Homo sapiens, UniProt P45984); experiment: biochemical; design: protein kinase panel (36 kinases), residual activity at two concentrations, singlicate
# T9 construct: gene MAPK9
# Experimental: as §1
# AKT1 = AKT1 (Homo sapiens, UniProt P31749); experiment: biochemical; design: protein kinase panel (36 kinases), residual activity at two concentrations, singlicate
# Experimental: as §1
# IKK- alpha = target: T10, IKK- alpha (Homo sapiens, UniProt O15111); experiment: biochemical; design: protein kinase panel (36 kinases), residual activity at two concentrations, singlicate
# T10 construct: gene CHUK
# Experimental: as §1
# EGFR = EGFR (Homo sapiens, UniProt P00533); experiment: biochemical; design: protein kinase panel (36 kinases), residual activity at two concentrations, singlicate
# Experimental: as §1
# RET = RET (Homo sapiens, UniProt P07949); experiment: biochemical; design: protein kinase panel (36 kinases), residual activity at two concentrations, singlicate
# Experimental: as §1
# CDK7/CycH/MAT1 = CDK7/CycH/MAT1 (Homo sapiens, UniProt P50613); experiment: biochemical; design: protein kinase panel (36 kinases), residual activity at two concentrations, singlicate
# Experimental: as §1
# PDK1 = target: T11, PDK1 (Homo sapiens, UniProt O15530); experiment: biochemical; design: protein kinase panel (36 kinases), residual activity at two concentrations, singlicate
# T11 construct: gene PDPK1
# Experimental: as §1
# VEGFR-1 [5] = target: T12, VEGFR-1 (Homo sapiens, UniProt P17948); experiment: biochemical; design: protein kinase panel (36 kinases), residual activity at two concentrations, singlicate
# T12 construct: gene FLT1
# Experimental: as §1
# CDK8/CycC = CDK8/CycC (Homo sapiens, UniProt P49336); experiment: biochemical; design: protein kinase panel (36 kinases), residual activity at two concentrations, singlicate
# Experimental: as §1
# JNK1 = target: T13, JNK1 (Homo sapiens, UniProt P45983); experiment: biochemical; design: protein kinase panel (36 kinases), residual activity at two concentrations, singlicate
# T13 construct: gene MAPK8
# Experimental: as §1
# VEGFR-2 [6] = target: T2, VEGFR-2; experiment: biochemical; design: protein kinase panel (36 kinases), residual activity at two concentrations, singlicate
# Experimental: as §1
# P38-alpha = target: T14, P38-alpha (Homo sapiens, UniProt Q16539); experiment: biochemical; design: protein kinase panel (36 kinases), residual activity at two concentrations, singlicate
# T14 construct: gene MAPK14
# Experimental: as §1
# AKT2 [7] = target: T15, AKT2 (Homo sapiens, UniProt P31751); experiment: biochemical; design: protein kinase panel (36 kinases), residual activity at two concentrations, singlicate
# Experimental: as §1
# STK33 = STK33 (Homo sapiens, UniProt Q9BYT3); experiment: biochemical; design: protein kinase panel (36 kinases), residual activity at two concentrations, singlicate
# Experimental: as §1
# CDK9/CycT = CDK9/CycT (Homo sapiens, UniProt P50750); experiment: biochemical; design: protein kinase panel (36 kinases), residual activity at two concentrations, singlicate
# Experimental: as §1
# IKK-beta = target: T16, IKK-beta (Homo sapiens, UniProt O14920); experiment: biochemical; design: protein kinase panel (36 kinases), residual activity at two concentrations, singlicate
# T16 construct: gene IKBKB
# Experimental: as §1
# HER2 [8] = target: T5, HER2; experiment: 36-kinase panel, residual activity at […]; p-HER2 loss in SKBR-3 cells by western blot; format: biochemical
# AKT2 [9] = target: T15, AKT2; experiment: 36-kinase panel, residual activity at […]; format: biochemical
# VEGFR-1 [10] = target: T12, VEGFR-1; experiment: 36-kinase panel, residual activity at […]; format: biochemical
# [11] = read-out: Bozepinib 5 µM, residual activity %
# [12] = read-out: Bozepinib 50 µM, residual activity %
# T1 sequence (P35916 25-1363): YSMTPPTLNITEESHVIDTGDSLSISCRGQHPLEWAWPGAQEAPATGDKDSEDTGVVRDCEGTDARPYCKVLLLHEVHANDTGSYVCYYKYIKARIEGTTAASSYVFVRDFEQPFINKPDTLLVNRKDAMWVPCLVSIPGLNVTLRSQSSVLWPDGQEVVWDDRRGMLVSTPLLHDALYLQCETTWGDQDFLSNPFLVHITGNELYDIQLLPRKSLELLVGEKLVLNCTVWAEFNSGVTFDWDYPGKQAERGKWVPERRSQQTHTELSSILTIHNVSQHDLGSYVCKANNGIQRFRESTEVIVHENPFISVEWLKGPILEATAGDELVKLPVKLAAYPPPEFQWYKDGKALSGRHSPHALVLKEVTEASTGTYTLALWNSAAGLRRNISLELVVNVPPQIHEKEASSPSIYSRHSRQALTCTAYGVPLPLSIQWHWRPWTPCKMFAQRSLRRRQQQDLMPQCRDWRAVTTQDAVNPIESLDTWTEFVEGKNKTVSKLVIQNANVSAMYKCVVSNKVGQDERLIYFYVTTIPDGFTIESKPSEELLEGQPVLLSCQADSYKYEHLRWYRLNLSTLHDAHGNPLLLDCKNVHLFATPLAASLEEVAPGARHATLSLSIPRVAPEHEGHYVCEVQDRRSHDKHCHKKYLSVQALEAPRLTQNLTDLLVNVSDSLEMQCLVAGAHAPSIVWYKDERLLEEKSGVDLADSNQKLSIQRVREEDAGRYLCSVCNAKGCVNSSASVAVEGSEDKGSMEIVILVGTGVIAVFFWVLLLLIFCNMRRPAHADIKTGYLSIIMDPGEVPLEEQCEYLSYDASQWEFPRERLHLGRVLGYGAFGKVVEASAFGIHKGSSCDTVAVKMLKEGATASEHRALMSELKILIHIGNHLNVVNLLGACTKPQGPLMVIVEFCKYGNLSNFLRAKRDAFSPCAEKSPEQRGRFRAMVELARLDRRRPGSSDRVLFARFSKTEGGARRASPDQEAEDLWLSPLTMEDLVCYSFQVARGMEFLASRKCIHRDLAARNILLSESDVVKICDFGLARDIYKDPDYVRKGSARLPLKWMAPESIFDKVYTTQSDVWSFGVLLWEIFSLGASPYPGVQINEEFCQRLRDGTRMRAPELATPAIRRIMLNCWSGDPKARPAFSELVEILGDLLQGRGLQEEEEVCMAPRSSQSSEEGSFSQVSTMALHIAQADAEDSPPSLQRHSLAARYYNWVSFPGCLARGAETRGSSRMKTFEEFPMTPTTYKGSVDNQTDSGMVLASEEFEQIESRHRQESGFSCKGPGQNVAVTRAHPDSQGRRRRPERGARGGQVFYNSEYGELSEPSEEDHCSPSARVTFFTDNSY
# T2 sequence (P35968 20-1356): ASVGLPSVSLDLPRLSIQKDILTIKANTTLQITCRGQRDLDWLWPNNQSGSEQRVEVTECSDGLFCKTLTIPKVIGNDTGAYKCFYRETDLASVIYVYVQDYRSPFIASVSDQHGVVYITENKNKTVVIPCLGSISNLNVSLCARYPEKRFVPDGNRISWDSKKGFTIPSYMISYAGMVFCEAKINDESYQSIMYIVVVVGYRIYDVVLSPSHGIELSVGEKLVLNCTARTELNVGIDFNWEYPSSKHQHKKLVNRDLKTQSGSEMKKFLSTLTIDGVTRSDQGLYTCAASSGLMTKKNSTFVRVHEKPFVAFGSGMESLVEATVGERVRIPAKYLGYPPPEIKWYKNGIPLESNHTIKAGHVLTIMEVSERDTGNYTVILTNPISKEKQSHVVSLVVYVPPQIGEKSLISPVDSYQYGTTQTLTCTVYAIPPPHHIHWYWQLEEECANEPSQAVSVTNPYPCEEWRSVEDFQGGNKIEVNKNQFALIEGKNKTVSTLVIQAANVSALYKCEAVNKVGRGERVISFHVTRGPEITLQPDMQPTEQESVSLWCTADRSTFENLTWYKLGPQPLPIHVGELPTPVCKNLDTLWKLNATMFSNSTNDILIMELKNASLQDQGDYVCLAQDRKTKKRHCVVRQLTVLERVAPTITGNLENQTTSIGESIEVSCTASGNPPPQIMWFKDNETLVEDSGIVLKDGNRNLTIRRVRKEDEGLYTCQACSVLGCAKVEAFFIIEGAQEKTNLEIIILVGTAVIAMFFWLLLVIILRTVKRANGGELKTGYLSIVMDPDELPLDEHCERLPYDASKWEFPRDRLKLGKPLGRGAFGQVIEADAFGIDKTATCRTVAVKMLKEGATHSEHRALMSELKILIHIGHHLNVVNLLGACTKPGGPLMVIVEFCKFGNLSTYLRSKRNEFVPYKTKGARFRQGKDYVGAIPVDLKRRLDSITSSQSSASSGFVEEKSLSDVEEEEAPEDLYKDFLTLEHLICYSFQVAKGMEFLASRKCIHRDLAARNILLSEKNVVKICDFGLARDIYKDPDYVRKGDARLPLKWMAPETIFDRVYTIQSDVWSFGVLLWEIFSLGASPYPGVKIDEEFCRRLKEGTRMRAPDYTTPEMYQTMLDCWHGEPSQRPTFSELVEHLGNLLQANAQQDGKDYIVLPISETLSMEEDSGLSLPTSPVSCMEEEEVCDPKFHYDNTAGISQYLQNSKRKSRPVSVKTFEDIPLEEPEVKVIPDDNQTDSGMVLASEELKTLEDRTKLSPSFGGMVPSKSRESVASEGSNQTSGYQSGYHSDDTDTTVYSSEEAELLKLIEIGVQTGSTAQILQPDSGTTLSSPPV
# T5 sequence (P04626 23-1255): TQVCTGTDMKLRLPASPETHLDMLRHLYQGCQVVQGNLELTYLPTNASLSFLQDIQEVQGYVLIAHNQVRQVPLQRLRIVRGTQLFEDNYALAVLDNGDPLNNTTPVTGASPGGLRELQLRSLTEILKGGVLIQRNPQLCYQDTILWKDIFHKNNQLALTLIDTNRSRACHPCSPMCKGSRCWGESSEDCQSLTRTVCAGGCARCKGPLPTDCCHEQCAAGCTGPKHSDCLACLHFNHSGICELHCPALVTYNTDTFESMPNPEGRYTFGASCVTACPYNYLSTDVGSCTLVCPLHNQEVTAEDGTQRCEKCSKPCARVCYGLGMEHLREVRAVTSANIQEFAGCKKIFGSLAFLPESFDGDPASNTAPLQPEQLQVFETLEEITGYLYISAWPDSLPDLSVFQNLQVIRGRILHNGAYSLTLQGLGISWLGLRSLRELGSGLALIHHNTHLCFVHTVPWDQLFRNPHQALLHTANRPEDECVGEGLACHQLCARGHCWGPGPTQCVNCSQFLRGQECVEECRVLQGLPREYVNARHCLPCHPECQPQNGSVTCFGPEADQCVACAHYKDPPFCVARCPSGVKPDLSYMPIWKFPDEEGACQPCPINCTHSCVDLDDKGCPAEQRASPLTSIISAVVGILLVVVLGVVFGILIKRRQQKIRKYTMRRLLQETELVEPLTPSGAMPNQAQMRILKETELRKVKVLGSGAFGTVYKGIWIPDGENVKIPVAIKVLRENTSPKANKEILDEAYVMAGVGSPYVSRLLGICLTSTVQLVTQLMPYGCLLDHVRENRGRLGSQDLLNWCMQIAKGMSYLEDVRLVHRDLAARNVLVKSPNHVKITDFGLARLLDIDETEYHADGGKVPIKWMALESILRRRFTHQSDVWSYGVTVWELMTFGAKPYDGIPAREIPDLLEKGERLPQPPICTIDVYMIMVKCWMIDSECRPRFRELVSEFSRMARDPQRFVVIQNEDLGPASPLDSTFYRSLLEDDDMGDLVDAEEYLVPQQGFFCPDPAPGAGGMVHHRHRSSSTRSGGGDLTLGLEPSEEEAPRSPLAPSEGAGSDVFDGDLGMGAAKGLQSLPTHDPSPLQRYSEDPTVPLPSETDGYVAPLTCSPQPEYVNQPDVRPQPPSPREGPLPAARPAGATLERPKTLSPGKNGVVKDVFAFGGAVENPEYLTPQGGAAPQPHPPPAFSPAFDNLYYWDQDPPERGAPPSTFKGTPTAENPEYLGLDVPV
# T15 sequence (P31751 whole entry): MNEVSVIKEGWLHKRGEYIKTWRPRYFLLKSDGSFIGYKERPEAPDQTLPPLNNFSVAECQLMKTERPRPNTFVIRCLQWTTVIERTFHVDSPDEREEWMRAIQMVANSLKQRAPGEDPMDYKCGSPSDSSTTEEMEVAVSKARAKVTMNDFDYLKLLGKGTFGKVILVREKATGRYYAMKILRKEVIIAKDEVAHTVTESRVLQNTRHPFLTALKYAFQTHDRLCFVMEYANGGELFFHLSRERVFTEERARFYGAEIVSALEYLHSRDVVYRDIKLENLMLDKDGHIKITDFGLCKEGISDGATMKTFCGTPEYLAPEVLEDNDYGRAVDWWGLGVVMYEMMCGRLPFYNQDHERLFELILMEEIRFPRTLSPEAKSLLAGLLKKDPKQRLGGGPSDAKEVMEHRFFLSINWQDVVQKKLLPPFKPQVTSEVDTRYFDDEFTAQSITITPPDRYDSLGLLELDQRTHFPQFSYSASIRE
# Sequence of STK33 (Q9BYT3 whole entry): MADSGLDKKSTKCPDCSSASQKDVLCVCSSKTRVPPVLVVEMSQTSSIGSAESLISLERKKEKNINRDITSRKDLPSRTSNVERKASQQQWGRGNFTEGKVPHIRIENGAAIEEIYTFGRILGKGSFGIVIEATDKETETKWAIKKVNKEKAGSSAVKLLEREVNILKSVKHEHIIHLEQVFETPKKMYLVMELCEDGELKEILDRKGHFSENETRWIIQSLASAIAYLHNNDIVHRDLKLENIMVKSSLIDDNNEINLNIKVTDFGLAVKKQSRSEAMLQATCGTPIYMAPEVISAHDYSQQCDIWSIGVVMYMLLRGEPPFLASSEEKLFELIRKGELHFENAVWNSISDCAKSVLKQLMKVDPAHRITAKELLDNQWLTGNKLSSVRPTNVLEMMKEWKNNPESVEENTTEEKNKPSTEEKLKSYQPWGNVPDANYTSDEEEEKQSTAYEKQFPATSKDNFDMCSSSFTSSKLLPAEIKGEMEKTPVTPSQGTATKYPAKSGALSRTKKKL
structure (smiles),measurement,setting,value
"O=[N+]([O-])c1ccc(S(=O)(=O)N2CC(n3cnc4c(Cl)nc(Cl)nc43)OCc3ccccc32)cc1 (racemic) [Bozepinib, (RS)-2,6-dichloro-9-[1-(p-nitrobenzenesulfonyl)-1,2,3,5-tetrahydro-4,1-benzoxazepin-3-yl]-9H-purine]","36-kinase panel, residual activity at 5 and 50 μM",VEGFR-3 [1],"showed inhibitory effects against VEGFR-1, VEGFR-2 and VEGFR-3 in the kinome assay"
same,"36-kinase panel, residual activity at 5 and 50 μM",VEGFR-2 [2],"showed inhibitory effects against VEGFR-1, VEGFR-2 and VEGFR-3 in the kinome assay"
same,remaining activity at 5 µM,STK23; [11],95%
same,remaining activity at 50 µM,STK23; [12],89%
same,remaining activity at 5 µM,CDK6/CycD1; [11],95%
same,remaining activity at 50 µM,CDK6/CycD1; [12],64%
same,remaining activity at 5 µM,IKK-epsilon; [11],113%
same,remaining activity at 50 µM,IKK-epsilon; [12],71%
same,remaining activity at 5 µM,HER2 [3]; [11],101%
same,remaining activity at 50 µM,HER2 [3]; [12],25%
same,remaining activity at 5 µM,PKC-alpha; [11],86%
same,remaining activity at 50 µM,PKC-alpha; [12],24%
same,remaining activity at 5 µM,JNK3; [11],81%
same,remaining activity at 50 µM,JNK3; [12],43%
same,remaining activity at 5 µM,JAK3; [11],94%
same,remaining activity at 50 µM,JAK3; [12],43%
same,remaining activity at 5 µM,AKT3; [11],98%
same,remaining activity at 50 µM,AKT3; [12],88%
same,remaining activity at 5 µM,ERK2; [11],104%
same,remaining activity at 50 µM,ERK2; [12],50%
same,remaining activity at 5 µM,VEGFR-3 [4]; [11],84%
same,remaining activity at 50 µM,VEGFR-3 [4]; [12],13%
same,remaining activity at 5 µM,JNK2; [11],77%
same,remaining activity at 50 µM,JNK2; [12],37%
same,remaining activity at 5 µM,AKT1; [11],96%
same,remaining activity at 50 µM,AKT1; [12],78%
same,remaining activity at 5 µM,IKK- alpha; [11],104%
same,remaining activity at 50 µM,IKK- alpha; [12],51%
same,remaining activity at 5 µM,EGFR; [11],84%
same,remaining activity at 50 µM,EGFR; [12],17%
same,remaining activity at 5 µM,RET; [11],79%
same,remaining activity at 50 µM,RET; [12],14%
same,remaining activity at 5 µM,CDK7/CycH/MAT1; [11],96%
same,remaining activity at 50 µM,CDK7/CycH/MAT1; [12],69%
same,remaining activity at 5 µM,PDK1; [11],41%
same,remaining activity at 50 µM,PDK1; [12],27%
same,remaining activity at 5 µM,VEGFR-1 [5]; [11],91%
same,remaining activity at 50 µM,VEGFR-1 [5]; [12],18%
same,remaining activity at 5 µM,CDK8/CycC; [11],109%
same,remaining activity at 50 µM,CDK8/CycC; [12],72%
same,remaining activity at 5 µM,JNK1; [11],45%
same,remaining activity at 50 µM,JNK1; [12],29%
same,remaining activity at 5 µM,VEGFR-2 [6]; [11],82%
same,remaining activity at 50 µM,VEGFR-2 [6]; [12],13%
same,remaining activity at 5 µM,P38-alpha; [11],115%
same,remaining activity at 50 µM,P38-alpha; [12],57%
same,remaining activity at 5 µM,AKT2 [7]; [11],100%
same,remaining activity at 50 µM,AKT2 [7]; [12],43%
same,remaining activity at 5 µM,STK33; [11],102%
same,remaining activity at 50 µM,STK33; [12],72%
same,remaining activity at 5 µM,CDK9/CycT; [11],102%
same,remaining activity at 50 µM,CDK9/CycT; [12],69%
same,remaining activity at 5 µM,IKK-beta; [11],113%
same,remaining activity at 50 µM,IKK-beta; [12],78%
same,"36-kinase panel, residual activity at 5 and 50 μM; p-HER2 loss in SKBR-3 cells b",HER2 [8],"HER2, AKT2 and VEGF receptors were considerably inhibited in the screening (Supplementary Table S3)"
same,"36-kinase panel, residual activity at 5 and 50 μM",AKT2 [9],"HER2, AKT2 and VEGF receptors were considerably inhibited in the screening (Supplementary Table S3)"
same,"36-kinase panel, residual activity at 5 and 50 μM",VEGFR-1 [10],"showed inhibitory effects against VEGFR-1, VEGFR-2 and VEGFR-3 in the kinome assay"
